Test results reported in patent US9695155B2, “Herbicidal substituted pyrimidinyloxy benzene compounds” (E. I. DU PONT DE NEMOURS AND COMPANY, priority 2013, dated 2017).

Columns and labels:
barnyardgrass [1] = assay: Test A preemergence; type: in vivo, Echinochloa crus-galli; settings: for Plant response rating, Barnyardgrass: 31 g ai/ha, 0 to 100 scale where 0 is no effect and 100 is complete control, visual, approximately 10 days; for Barnyardgrass plant response rating (0 to 100 scale, 0 is no effect, 100 is complete control): 125 g ai/ha
How it was run: (§1)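 Injury scores run from 0, no effect, to 100, complete control, judged by eye against untreated plants roughly 10 days after treatment. Chemicals carried a surfactant in a non-phytotoxic solvent and went onto loam–sand soil preemergence or onto one- to two-leaf seedlings postemergence.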

kochia [2] = assay: Test A preemergence; type: in vivo, Kochia scoparia; settings: for Plant response rating, Kochia: 31 g ai/ha, 0 to 100 scale where 0 is no effect and 100 is complete control, visual, approximately 10 days; for Kochia plant response rating (0 to 100 scale): 125 g ai/ha
How it was run: as §1

ragweed [3] = assay: Test A preemergence; type: in vivo, Ambrosia elatior; settings: for Plant response rating, Ragweed: 31 g ai/ha, 0 to 100 scale where 0 is no effect and 100 is complete control, visual, approximately 10 days; for Ragweed plant response rating (0 to 100 scale): 125 g ai/ha
How it was run: as §1

Italian ryegrass [4] = assay: Test A preemergence; type: in vivo, Lolium multiflorum; settings: for Plant response rating, Ryegrass, Italian: 31 g ai/ha, 0 to 100 scale where 0 is no effect and 100 is complete control, visual, approximately 10 days; for Ryegrass, Italian plant response rating (0 to 100 scale): 125 g ai/ha
How it was run: as §1

giant foxtail [5] = assay: Test A preemergence; type: in vivo, Setaria faberii; settings: for Plant response rating, Foxtail, Giant: 31 g ai/ha, 0 to 100 scale where 0 is no effect and 100 is complete control, visual, approximately 10 days; for Foxtail, Giant plant response rating (0 to 100 scale): 125 g ai/ha
How it was run: as §1

pigweed [6] = assay: Test A preemergence; type: in vivo, Amaranthus retroflexus; settings: for Plant response rating, Pigweed: 31 g ai/ha, 0 to 100 scale where 0 is no effect and 100 is complete control, visual, approximately 10 days; for Pigweed plant response rating (0 to 100 scale): 125 g ai/ha
How it was run: as §1

barnyardgrass [7] = assay: Test A postemergence; type: in vivo, Echinochloa crus-galli; settings: 0 to 100 scale, 0 no effect, 100 complete control
How it was run: as §1

kochia [8] = assay: Test A postemergence; type: in vivo, Kochia scoparia; settings: 0 to 100 scale, 0 no effect, 100 complete control
How it was run: as §1

ragweed [9] = assay: Test A postemergence; type: in vivo, Ambrosia elatior; settings: 0 to 100 scale, 0 no effect, 100 complete control
How it was run: as §1

Italian ryegrass [10] = assay: Test A postemergence; type: in vivo, Lolium multiflorum; settings: 0 to 100 scale, 0 no effect, 100 complete control
How it was run: as §1

giant foxtail [11] = assay: Test A postemergence; type: in vivo, Setaria faberii; settings: 0 to 100 scale, 0 no effect, 100 complete control
How it was run: as §1

pigweed [12] = assay: Test A postemergence; type: in vivo, Amaranthus retroflexus; settings: 0 to 100 scale, 0 no effect, 100 complete control
How it was run: as §1

wheat = assay: Test A postemergence; type: in vivo, Triticum aestivum; settings: 0 to 100 scale, 0 no effect, 100 complete control
How it was run: as §1

corn = assay: Test A postemergence; type: in vivo, Zea mays; settings: 0 to 100 scale, 0 no effect, 100 complete control
How it was run: as §1

blackgrass = assay: Test A postemergence; type: in vivo, Alopecurus myosuroides; settings: 0 to 100 scale, 0 no effect, 100 complete control
How it was run: as §1

galium = assay: Test A postemergence; type: in vivo, Galium aparine; settings: 0 to 100 scale, 0 no effect, 100 complete control
How it was run: as §1

rice = assay: Test B flooded paddy test; type: in vivo, Oryza sativa; settings: Flood, 250 g ai/ha; 0 to 100 scale where 0 is no effect and 100 is complete control
How it was run: (§2)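 Greenhouse flooded-pot test: compounds dosed into 3 cm standing water over 2-leaf plants, flood held constant. Rated visually after 13–15 days on 0–100 (complete control = 100); a dash marks no test result.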

sedge, umbrella = assay: Test B flooded paddy test; type: in vivo, Cyperus difformis; settings: Flood, 250 g ai/ha; 0 to 100 scale where 0 is no effect and 100 is complete control
How it was run: as §2

Heteranthera limosa = assay: Test B flooded paddy test; type: in vivo; settings: Flood, 250 g ai/ha; 0 to 100 scale where 0 is no effect and 100 is complete control
How it was run: as §2

barnyardgrass [13] = assay: Test B flooded paddy test; type: in vivo, Echinochloa crus-galli; settings: Flood, 250 g ai/ha; 0 to 100 scale where 0 is no effect and 100 is complete control
How it was run: as §2

SMILES	Plant response rating, Barnyardgrass (barnyardgrass [1])	Barnyardgrass plant response rating (0 to 100 scale, 0 is no effect, 100 is complete control) (barnyardgrass [1])	Plant response rating, Kochia (kochia [2])	Kochia plant response rating (0 to 100 scale) (kochia [2])	Plant response rating, Ragweed (ragweed [3])	Ragweed plant response rating (0 to 100 scale) (ragweed [3])	Plant response rating, Ryegrass, Italian (Italian ryegrass [4])	Ryegrass, Italian plant response rating (0 to 100 scale) (Italian ryegrass [4])	Plant response rating, Foxtail, Giant (giant foxtail [5])	Foxtail, Giant plant response rating (0 to 100 scale) (giant foxtail [5])	Plant response rating, Pigweed (pigweed [6])	Pigweed plant response rating (0 to 100 scale) (pigweed [6])	Plant response rating, Barnyardgrass (barnyardgrass [7]; 31 g ai/ha)	Plant response rating, Barnyardgrass (barnyardgrass [7]; 125 g ai/ha)	Plant response rating, Kochia (kochia [8]; 31 g ai/ha)	Plant response rating, Kochia (kochia [8]; 125 g ai/ha)	Plant response rating, Ragweed (ragweed [9]; 31 g ai/ha)	Plant response rating, Ragweed (ragweed [9]; 125 g ai/ha)	Plant response rating, Ryegrass, Italian (Italian ryegrass [10]; 31 g ai/ha)	Plant response rating, Ryegrass, Italian (Italian ryegrass [10]; 125 g ai/ha)	also measured
Fc1cnc(Oc2ccccc2-n2cc(SC(F)(F)F)cn2)nc1 [Compound 247]	0	70	0	60	0	0	0	0	0	100	0	80	0	20	20	40	0	0	0	0	Plant response rating, Foxtail, Giant (giant foxtail [11]; 31 g ai/ha): 0; Plant response rating, Foxtail, Giant (giant foxtail [11]; 125 g ai/ha): 10; Plant response rating, Pigweed (pigweed [12]; 31 g ai/ha): 10; Plant response rating, Pigweed (pigweed [12]; 125 g ai/ha): 20; Plant response rating, Wheat (wheat; 31 g ai/ha): 0; Plant response rating, Wheat (wheat; 125 g ai/ha): 20; Plant response rating, Corn (corn; 31 g ai/ha): 0; Plant response rating, Corn (corn; 125 g ai/ha): 20; Plant response rating, Blackgrass (blackgrass; 31 g ai/ha): 0; Plant response rating, Blackgrass (blackgrass; 125 g ai/ha): 40; Plant response rating, Galium (galium; 31 g ai/ha): 10; Plant response rating, Galium (galium; 125 g ai/ha): 30; Plant response rating, Rice (rice): 0; Plant response rating, Sedge, Umbrella (sedge, umbrella): 50; Plant response rating, Ducksalad (Heteranthera limosa): 65; Plant response rating, Barnyardgrass (barnyardgrass [13]): 0
FCc1cccc(Oc2ncc(F)cn2)c1-n1cc(Cl)cn1 [Compound 249]	0	0	0	40	0	0	0	30	0	0	90	90	0	60	20	80	10	70	0	0	Plant response rating, Foxtail, Giant (giant foxtail [11]; 31 g ai/ha): 0; Plant response rating, Foxtail, Giant (giant foxtail [11]; 125 g ai/ha): 60; Plant response rating, Pigweed (pigweed [12]; 31 g ai/ha): 60; Plant response rating, Pigweed (pigweed [12]; 125 g ai/ha): 100; Plant response rating, Wheat (wheat; 31 g ai/ha): 0; Plant response rating, Wheat (wheat; 125 g ai/ha): 0; Plant response rating, Corn (corn; 31 g ai/ha): 0; Plant response rating, Corn (corn; 125 g ai/ha): 10; Plant response rating, Blackgrass (blackgrass; 31 g ai/ha): 60; Plant response rating, Blackgrass (blackgrass; 125 g ai/ha): 80; Plant response rating, Galium (galium; 31 g ai/ha): 20; Plant response rating, Galium (galium; 125 g ai/ha): 30; Plant response rating, Rice (rice): 0; Plant response rating, Sedge, Umbrella (sedge, umbrella): 60; Plant response rating, Ducksalad (Heteranthera limosa): 70; Plant response rating, Barnyardgrass (barnyardgrass [13]): 0
FCc1cccc(Oc2ncc(Br)cn2)c1-n1cc(Cl)cn1 [Compound 251]	30	50	10	70	0	30	0	0	50	80	70	90	10	30	40	60	10	20	0	10	Plant response rating, Foxtail, Giant (giant foxtail [11]; 31 g ai/ha): 30; Plant response rating, Foxtail, Giant (giant foxtail [11]; 125 g ai/ha): 60; Plant response rating, Pigweed (pigweed [12]; 31 g ai/ha): 60; Plant response rating, Pigweed (pigweed [12]; 125 g ai/ha): 70; Plant response rating, Wheat (wheat; 31 g ai/ha): 0; Plant response rating, Wheat (wheat; 125 g ai/ha): 0; Plant response rating, Corn (corn; 31 g ai/ha): 0; Plant response rating, Corn (corn; 125 g ai/ha): 20; Plant response rating, Blackgrass (blackgrass; 31 g ai/ha): 50; Plant response rating, Blackgrass (blackgrass; 125 g ai/ha): 70; Plant response rating, Galium (galium; 31 g ai/ha): 20; Plant response rating, Galium (galium; 125 g ai/ha): 30; Plant response rating, Rice (rice): 0; Plant response rating, Sedge, Umbrella (sedge, umbrella): 40; Plant response rating, Ducksalad (Heteranthera limosa): 75; Plant response rating, Barnyardgrass (barnyardgrass [13]): 0
Cc1cn(-c2c(C#N)cccc2Oc2ncc(Cl)cn2)cn1 [Compound 260]	0	0	0	0	0	0	0	0	0	0	0	30	0	0	50	60	30	40	0	0	Plant response rating, Foxtail, Giant (giant foxtail [11]; 31 g ai/ha): 0; Plant response rating, Foxtail, Giant (giant foxtail [11]; 125 g ai/ha): 0; Plant response rating, Pigweed (pigweed [12]; 31 g ai/ha): 50; Plant response rating, Pigweed (pigweed [12]; 125 g ai/ha): 60; Plant response rating, Wheat (wheat; 31 g ai/ha): 0; Plant response rating, Wheat (wheat; 125 g ai/ha): 0; Plant response rating, Corn (corn; 31 g ai/ha): 0; Plant response rating, Corn (corn; 125 g ai/ha): 10; Plant response rating, Blackgrass (blackgrass; 31 g ai/ha): 0; Plant response rating, Blackgrass (blackgrass; 125 g ai/ha): 0; Plant response rating, Galium (galium; 31 g ai/ha): 50; Plant response rating, Galium (galium; 125 g ai/ha): 60; Plant response rating, Rice (rice): 0; Plant response rating, Sedge, Umbrella (sedge, umbrella): 0; Plant response rating, Ducksalad (Heteranthera limosa): 0; Plant response rating, Barnyardgrass (barnyardgrass [13]): 0
Cc1cc(C(F)(F)F)nn1-c1ccccc1Oc1ncc(Cl)cn1 [Compound 266]	0	0	0	0	0	0	0	0	0	0	0	0	0	0	0	0	0	0	0	0	Plant response rating, Foxtail, Giant (giant foxtail [11]; 31 g ai/ha): 0; Plant response rating, Foxtail, Giant (giant foxtail [11]; 125 g ai/ha): 0; Plant response rating, Pigweed (pigweed [12]; 31 g ai/ha): 0; Plant response rating, Pigweed (pigweed [12]; 125 g ai/ha): 0; Plant response rating, Wheat (wheat; 31 g ai/ha): 0; Plant response rating, Wheat (wheat; 125 g ai/ha): 0; Plant response rating, Corn (corn; 31 g ai/ha): 0; Plant response rating, Corn (corn; 125 g ai/ha): 0; Plant response rating, Blackgrass (blackgrass; 31 g ai/ha): 0; Plant response rating, Blackgrass (blackgrass; 125 g ai/ha): 0; Plant response rating, Galium (galium; 31 g ai/ha): 0; Plant response rating, Galium (galium; 125 g ai/ha): 0; Plant response rating, Rice (rice): 0; Plant response rating, Sedge, Umbrella (sedge, umbrella): 0; Plant response rating, Ducksalad (Heteranthera limosa): 0; Plant response rating, Barnyardgrass (barnyardgrass [13]): 0
